The text below walks through data of patent publication US9051330B2, “Dithiolopyrrolones with therapeutic activity” (Welichem Biotech Inc., priority 2002, dated 2015).

Common to all, as to format: cell-based, human
Experiment [1] relates to Ovcar-3 cell line. Nature of the experiment: NCI standard anti-proliferative test, ovarian cancer Ovcar-3 cells. The text has this: (§1) These assays are commonly used by those skilled in the art and are accepted as indicative of antiproliferative activity in mammals. The antiproliferative activities of the compounds of the invention have been determined in cell cultures of human ovarian cancer, using a standard anti-proliferative test of the US National Cancer Institute (NCI). [Monks, A. et al., J. Natl. Cancer Inst. 83(11): 757-766, 1991].
The novel compound had activity against 56 cancer cell lines of a wide range of major cancers. (Table 1a).

Experiment [2] concerns H460. Nature of the experiment: NCI standard anti-proliferative test, H460 cells.
The test system of experiment [3] is CAKI-1. The experiment can be described thus: NCI anti-proliferative test, Renal Cancer CAKI-1.
Experiment [4] concerns LOX IMVI. The experiment can be described thus: NCI anti-proliferative test, Melanoma LOX IMVI.
For experiment [5], the system named is SK-MEL-2. The experiment can be described thus: NCI anti-proliferative test, Melanoma SK-MEL-2.
In experiment [6] the test system is A549/ATCC. Nature of the experiment: NCI anti-proliferative test, Non-Small Cell Lung Cancer A549/ATCC.
Experiment [7] concerns M14. The experiment can be described thus: NCI anti-proliferative test, Melanoma M14.
For experiment [8], the system named is IGROV1. The experiment can be described thus: NCI anti-proliferative test, Ovarian Cancer IGROV1.
From the text: as §1

The subject of experiment [9] is RPMI-8226. Nature of the experiment: NCI anti-proliferative test, Leukemia RPMI-8226.
The test system of experiment [10] is HL-60(TB). The experiment can be described thus: NCI anti-proliferative test, Leukemia HL-60(TB).
The subject of experiment [11] is MALME-3M. Nature of the experiment: NCI anti-proliferative test, Melanoma MALME-3M.
The test system of experiment [12] is MCF7. The experiment can be described thus: NCI anti-proliferative test, Breast Cancer MCF7.
For experiment [13], the system named is HOP-92. Nature of the experiment: NCI anti-proliferative test, Non-Small Cell Lung Cancer HOP-92.
The test system of experiment [14] is HOP-62. The experiment can be described thus: NCI anti-proliferative test, Non-Small Cell Lung Cancer HOP-62.
In experiment [15] the test system is HCT-116. Nature of the experiment: NCI anti-proliferative test, Colon Cancer HCT-116.
The subject of experiment [16] is SF-268. The experiment can be described thus: NCI anti-proliferative test, CNS Cancer SF-268.
The test system of experiment [17] is U251. Nature of the experiment: NCI anti-proliferative test, CNS Cancer U251.
For experiment [18], the system named is SK-MEL-5. Nature of the experiment: NCI anti-proliferative test, Melanoma SK-MEL-5.
For experiment [19], the system named is 786-0. The experiment can be described thus: NCI anti-proliferative test, Renal Cancer 786-0.
The subject of experiment [20] is DU-145. Nature of the experiment: NCI anti-proliferative test, Prostate Cancer DU-145.
In experiment [21] the test system is SK-MEL-28. Nature of the experiment: NCI anti-proliferative test, Melanoma SK-MEL-28.
The test system of experiment [22] is ACHN. Nature of the experiment: NCI anti-proliferative test, Renal Cancer ACHN.
For experiment [23], the system named is OVCAR-5. The experiment can be described thus: NCI anti-proliferative test, Ovarian Cancer OVCAR-5.
From the text: as §1

Experiment [24] has as its system SN12C. The experiment can be described thus: NCI anti-proliferative test, Renal Cancer SN12C.
The subject of experiment [25] is HT29. The experiment can be described thus: NCI anti-proliferative test, Colon Cancer HT29.
Experiment [26] has as its system UO-31. Nature of the experiment: NCI anti-proliferative test, Renal Cancer UO-31.
Experiment [27] has as its system T-47D. The experiment can be described thus: NCI anti-proliferative test, Breast Cancer T-47D.
In experiment [28] the test system is COLO 205. Nature of the experiment: NCI anti-proliferative test, Colon Cancer COLO 205.
Experiment [29] relates to HCC-2998. The experiment can be described thus: NCI anti-proliferative test, Colon Cancer HCC-2998.
For experiment [30], the system named is UACC-62. Nature of the experiment: NCI anti-proliferative test, Melanoma UACC-62.
Experiment [31] concerns SF-295. Nature of the experiment: NCI anti-proliferative test, CNS Cancer SF-295.
Experiment [32] relates to BT-549. Nature of the experiment: NCI anti-proliferative test, Breast Cancer BT-549.
The subject of experiment [33] is CCRF-CEM. The experiment can be described thus: NCI anti-proliferative test, Leukemia CCRF-CEM.
The subject of experiment [34] is NCI-H23. Nature of the experiment: NCI anti-proliferative test, Non-Small Cell Lung Cancer NCI-H23.
Experiment [35] relates to NCI-H226. Nature of the experiment: NCI anti-proliferative test, Non-Small Cell Lung Cancer NCI-H226.
For experiment [36], the system named is SW-620. The experiment can be described thus: NCI anti-proliferative test, Colon Cancer SW-620.
Experiment [37] deals with HCT-15. The experiment can be described thus: NCI anti-proliferative test, Colon Cancer HCT-15.
The test system of experiment [38] is MDA-MB-435. Nature of the experiment: NCI anti-proliferative test, Breast Cancer MDA-MB-435.
The subject of experiment [39] is OVCAR-8. The experiment can be described thus: NCI anti-proliferative test, Ovarian Cancer OVCAR-8.
From the text: as §1

Experiment [40] relates to TK-10. The experiment can be described thus: NCI anti-proliferative test, Renal Cancer TK-10.
For experiment [41], the system named is HS 578T. Nature of the experiment: NCI anti-proliferative test, Breast Cancer HS 578T.
Experiment [42] deals with EKVX. The experiment can be described thus: NCI anti-proliferative test, Non-Small Cell Lung Cancer EKVX.
Experiment [43] deals with MOLT-4. The experiment can be described thus: NCI anti-proliferative test, Leukemia MOLT-4.
Experiment [44] deals with SR. Nature of the experiment: NCI anti-proliferative test, Leukemia SR.
For experiment [45], the system named is NCI-H322M. The experiment can be described thus: NCI anti-proliferative test, Non-Small Cell Lung Cancer NCI-H322M.
The subject of experiment [46] is UACC-257. The experiment can be described thus: NCI anti-proliferative test, Melanoma UACC-257.
In experiment [47] the test system is K-562. The experiment can be described thus: NCI anti-proliferative test, Leukemia K-562.
Experiment [48] deals with NCI-H522. Nature of the experiment: NCI anti-proliferative test, Non-Small Cell Lung Cancer NCI-H522.
The test system of experiment [49] is SNB-19. The experiment can be described thus: NCI anti-proliferative test, CNS Cancer SNB-19.
Experiment [50] concerns SF-539. The experiment can be described thus: NCI anti-proliferative test, CNS Cancer SF-539.
For experiment [51], the system named is MDA-MB-231/ATCC. Nature of the experiment: NCI anti-proliferative test, Breast Cancer MDA-MB-231/ATCC.
Experiment [52] concerns A498. Nature of the experiment: NCI anti-proliferative test, Renal Cancer A498.
The subject of experiment [53] is RXF 393. Nature of the experiment: NCI anti-proliferative test, Renal Cancer RXF 393.
The subject of experiment [54] is NCI/ADR-RES. Nature of the experiment: NCI anti-proliferative test, Breast Cancer NCI/ADR-RES.
Experiment [55] has as its system PC-3. The experiment can be described thus: NCI anti-proliferative test, Prostate Cancer PC-3.
The subject of experiment [56] is KM12. Nature of the experiment: NCI anti-proliferative test, Colon Cancer KM12.
The mark [57] stands for this setting: ovarian cancer cells Ovcar-3, comparison with XN3.
The mark [58] stands for this setting: cancer cell line H460, read-out: IC50 H460.

The structures appear in SMILES notation. Like-named read-outs stand apart in the source and are kept apart here.

As a reminder, the IC50 is the concentration at which inhibition is half-maximal.

`COc1ccc(-n2c3cssc-3c(NC(=O)c3cccs3)c2=O)c(OC)c1` [WBL-007] came in with an IC50 in experiment [1] (setting [57]) of 28 nM.

On to `COc1ccc(-n2c3cssc-3c(NC(=O)c3ccc(C(F)(F)F)cc3)c2=O)c(OC)c1` [BLI-093], for which, in [1] (setting [57]), the IC50 is 54 nM.

Turning to `COc1ccc(-n2c3cssc-3c(NC(=O)c3ccc([N+](=O)[O-])cc3)c2=O)c(OC)c1` [Compound 0038], the IC50 in experiment [1] (setting [57]) was found to be 68 nM.

Compound `COc1ccc(-n2c3cssc-3c(NC(=O)Cc3cccs3)c2=O)c(OC)c1` [Compound 0037] displayed an IC50 in experiment [1] (setting [57]) of 71 nM.

With `COc1ccc(-n2c3cssc-3c(NC(=O)c3cc(F)cc(F)c3)c2=O)c(OC)c1` [Compound R3], the IC50 in [1] (setting [57]) is 78 nM.

Compound `COc1ccc(-n2c3cssc-3c(NC(=O)c3ccc(F)c(F)c3F)c2=O)c(OC)c1` [Compound R4] had an IC50 in experiment [1] (setting [57]) of 46 nM.

Consider `COc1ccc(-n2c3cssc-3c(NC(=O)CCC(=O)O)c2=O)c(OC)c1` [BLI-031-2], for which the IC50 in [2] (setting [58]) is above 50000 nM.

In turn, `COc1ccc(-n2c3cssc-3c(NC(=O)c3ccc(F)cc3)c2=O)c(OC)c1` [WBL-018] registered an IC50 in experiment [1] (setting [57]) of 70 nM.

As to `COc1ccc(-n2c3cssc-3c(NC(=O)c3ccc(CN4CCNCC4)cc3)c2=O)c(OC)c1` [Compound 0069], in [2] (setting [58]), the IC50 turned out to be 40 nM.

For `COc1ccc(-n2c3cssc-3c(NC(=O)c3cc(C(F)(F)F)cc(C(F)(F)F)c3)c2=O)c(OC)c1` [Compound 0058], the IC50 was determined as 440 nM in experiment [3]; 14 nM in experiment [4]; 180 nM in experiment [5]; 420 nM in experiment [6]; 240 nM in [7]; 170 nM in experiment [8]. Further, the IC50 in experiment [9] is below 10 nM; in experiment [10], 19 nM; in experiment [11], 190 nM; in [12] it was 170 nM; in experiment [13], 180 nM; in [14], 130 nM. Besides, the IC50 in experiment [15] is 16 nM; in experiment [16], 140 nM; in [17] it was 150 nM; in experiment [18], 120 nM; in experiment [19], 60 nM; in experiment [20], 13 nM. Also, the IC50 in [21] came out at 16 nM; in experiment [22], 140 nM; in [23], 450 nM; in experiment [24] it was 120 nM; in experiment [25] it was 50 nM; in [26], 200 nM. For the same compound, the IC50 in experiment [27] came to 13 nM; in experiment [28], 150 nM; in experiment [2] (Non-Small Cell Lung Cancer, NCI-H460, 56 cell line panel, read-out: IC50) it was 260 nM; in experiment [29], 110 nM; in [30], 190 nM; in [31], 230 nM. For the same compound, the IC50 in experiment [32] is 150 nM; in [33], below 10 nM; in [34] it was 210 nM; in [35], 270 nM; in [36] it was 34 nM; in [37], 20 nM. Further, the concentration for half-maximal inhibition (IC50) in [38] stood at 220 nM; in experiment [1] (Ovarian Cancer, OVCAR-3, 56 cell line panel) it was 30 nM; in experiment [1] (setting [57]), 34 nM; in experiment [39], 170 nM; in experiment [40], 1370 nM; in experiment [41], 220 nM. Moreover, the IC50 came to 130 nM in experiment [42]; 150 nM in [43]; 20 nM in experiment [44]; 8.56 µM in experiment [45]; 150 nM in [46]; 19 nM in experiment [47]. Besides, the IC50 was 190 nM in experiment [48]; 230 nM in experiment [49]; 180 nM in experiment [50]; 130 nM in [51]; 190 nM in experiment [52]; 40 nM in [53]. Further, the half-inhibitory concentration (IC50) is 1040 nM in experiment [54], 40 nM in experiment [55] and 2970 nM in experiment [56].
